Patent publication US5384128A, “Method of and compounds for treatment for cystic fibrosis” (University of Alabama Research Foundation, priority 1993, dated 1995)

Legend:
[1] = tested on: T84 cells; assay: 125I- efflux assay (Cl- channel activity), T84 cells; type: cell-based; conditions: for potency in stimulating 125I- efflux relative to DM: equimolar concentrations
From the text: (§1) Forskolin or cAMP-stimulated Cl^- channel activity is a standard measurement of the activity of Cl^- channels represented by CFTR, while ionomycin or Ca^++ ionophore-stimulated Cl^- channel activity is a measure of the activity of Ca^++ -regulated Cl^- channels which arc different from those represented by CFTR. […] In contrast Ca^++ -regulated Cl^- channels operate normally in CF cells and are opened by ionomycin just as they are in T84 cells.
(§2) The cells employed were (1) T84 cells (ATCC Accession No. CCL 248) (2) CFPAC-1 cells (ATCC Accession No. CRL 1918) (a newly established continuous line of pancreatic duct adenocarcinoma cells from a CF patient which is homozygous for the deletion of phenylalanine in the 508 position of CFTR, the mutation found in 70% of CF patients), (3) clones of CFPAC-1 cells which have been transduced with a retroviral vector (PLJ) containing (PLJ-CFTR-CFPAC) or lacking (PLJ-CFPAC) cDNA for functional CFTR, and (4) 2CFSMEo-, a continuous cell line derived from the tracheal submucosal gland of a CF patient whose exact genotype is unknown but which expresses the phenotype of defective Cl^- channel permeability characteristic of CF.
(§3) In general, cells were washed with 1 ml of efflux medium (140 mM NaCl, 1 mM Ca gluconate, 1 mM Mg gluconate, 5 mM KH2 PO4, 10 mM Tris-Hepes pH 7.4) four times and incubated with ^125 I- (3μl Na ^125 I=12 μC) in 1 ml of the same medium containing 5 mM D-glucose for 1 hour at 37° C. to load the cells with ^125 I. The cells were then washed quickly five times with 1 ml of the efflux medium at 22° C. to remove any ^125 I- that had not been taken up by the cells. One ml of the efflux medium at 22° C. was then added to initiate efflux and left in contact with the cells for 1 minute, before being removed and replaced with another 1 ml of medium. This replacement procedure was carried out 2-5 times before addition of the appropriate surfactant and/or agonist in 1 ml of the same medium to one culture dish (experimental) while to another dish 1 ml of medium without surfactant and/or agonist was added (control). Medium with or without surfactant and/or agonist was replaced at 0.5 minute intervals until the 10 minute time point when the replacement time was prolonged to 1 minute intervals. The samples of the replacement media were counted in a gamma counter to determine the amount of ^125 I- effluxing from the cells into the medium in each time interval. After 15 minutes when measurement of efflux was completed the cells were extracted for 30 minutes with 1 ml 0.2N NaOH, 0.15% SDS and the extract counted to determine the residual ^125 I- remaining in the cells.
(§4) The data is expressed as ^125 I- remaining in the cells (set at 100% at the initiation of efflux) and plotted against the time of efflux in minutes and/or as the ln % of ^125 I- remaining in the cells, plotted against the time of efflux in minutes. Expressing the data in the latter form facilitates calculation of the apparent rate constant for ^125 I- efflux using the equation r=[ln (R1)-ln (R2)]/(t1-t2) where R1 and R2 are the percent of counts remaining in the cell layer at times t1 and t2 respectively.

[2] = tested on: PLJ-CFTR-CFPAC-10; assay: 125I- efflux assay, CFPAC-1 cells transduced with wild-type CFTR cDNA; type: cell-based, human; conditions: vector containing wild-type CFTR cDNA (PLJ-CFTR-CFPAC-10)
From the text: as §2
as §3, with “This replacement procedure was carried out 2-5 times before addition of the appropriate surfactant and/or agonist in 1 ml of the same medium to one culture dish (experimental) while to another dish 1 ml of medium without surfactant and/or agonist was added (control). Medium with or without surfactant and/or agonist was replaced at 0.5 minute intervals until the 10 minute time point when the replacement time was prolonged to 1 minute intervals.” left out
(§5) The data is expressed as ^125 I- remaining in the cells (set at 100% at the initiation of efflux) and plotted against the time of efflux in minutes and/or as the ln % of ^125 I- remaining in the cells, plotted against the time of efflux in minutes. […]

[3] = tested on: CFPAC-1 cells; assay: 125I- efflux assay, CFPAC-1 cells; type: cell-based, human
From the text: as §2, §3, §4

[4] = tested on: 2CFSMEo-; assay: 125I- efflux assay, airway epithelial cell line of a CF patient; type: cell-based, human; conditions: 2CFSMEo- cells
From the text: as §2
as §3, with “This replacement procedure was carried out 2-5 times before addition of the appropriate surfactant and/or agonist in 1 ml of the same medium to one culture dish (experimental) while to another dish 1 ml of medium without surfactant and/or agonist was added (control). Medium with or without surfactant and/or agonist was replaced at 0.5 minute intervals until the 10 minute time point when the replacement time was prolonged to 1 minute intervals.” left out
as §5

[5] = tested on: PLJ-CFPAC-10; assay: 125I- efflux assay, CFPAC-1 cells transduced with vector lacking CFTR cDNA; type: cell-based, human
From the text: as §2
as §3, with “This replacement procedure was carried out 2-5 times before addition of the appropriate surfactant and/or agonist in 1 ml of the same medium to one culture dish (experimental) while to another dish 1 ml of medium without surfactant and/or agonist was added (control). Medium with or without surfactant and/or agonist was replaced at 0.5 minute intervals until the 10 minute time point when the replacement time was prolonged to 1 minute intervals.” left out
as §5

[6] = Effective dosage (general statement); type: cell-based; conditions: maltoside with alkyl chain of 12, 13 or 14 carbon atoms
[7] = tested on: T84 cells; conditions: human
[8] = tested on: CFTR in T84 cells; conditions: cited from earlier work
[9] = tested on: CFPAC-1; conditions: CFPAC-1, homozygous ΔF508; cited from earlier work
[10] = tested on: CF cells; assay: 125I- efflux / Cl- channel opening in CF cells; type: cell-based
Experimental: as §1
In general, cells were washed with 1 ml of efflux medium (140 mM NaCl, 1 mM Ca gluconate, 1 mM Mg gluconate, 5 mM KH2 PO4, 10 mM Tris-Hepes pH 7.4) four times and incubated with ^125 I- (3μl Na ^125 I=12 μC) in 1 ml of the same medium containing 5 mM D-glucose for 1 hour at 37° C. to load the cells with ^125 I. The cells were then washed quickly five times with 1 ml of the efflux medium at 22° C. to remove any ^125 I- that had not been taken up by the cells. […] The samples of the replacement media were counted in a gamma counter to determine the amount of ^125 I- effluxing from the cells into the medium in each time interval. After 15 minutes when measurement of efflux was completed the cells were extracted for 30 minutes with 1 ml 0.2N NaOH, 0.15% SDS and the extract counted to determine the residual ^125 I- remaining in the cells.

[11] = tested on: T84 cells; conditions: comparison statement; cited from earlier work

## CCCCCCCCCCCCCCO[C@@H]1O[C@H](CO)[C@@H](O[C@@H]2O[C@@H](CO)[C@H](O)[C@@H](O)[C@@H]2O)[C@H](O)[C@H]1O (stereo in doubt) [tetra DM, tetradecylmaltoside]
[1]
  potency as Cl- channel activator among alkylmaltosides tested: most potent
[1]; T84 cells
  cause of 125I- efflux stimulation: cell lysis: not due to lysis of the cells
  potency change on lengthening alkyl chain, DM as reference standard: markedly increases the potency
  potency in stimulating 125I- efflux relative to DM: more potent than DM
[1]; T84 cells, 10-100 μM
  stimulation of 125I- efflux, dose dependence: dose-dependent stimulation
[2]
  Cl- channel activity as measured by increased 125I- efflux: stimulate
[3]
  increase in 125I- efflux, dose dependence: dose-dependent increase
[4]
  stimulation of 125I- efflux, dose dependence: dose-dependent stimulation
[5]
  Cl- channel activity as measured by increased 125I- efflux: stimulate
[6]
  effective dosage: 10 to 400 µM

## CCCCCCCCCCCCCO[C@@H]1O[C@H](CO)[C@@H](OC2OC(CO)C(O)C(O)C2O)[C@H](O)[C@H]1O (stereo in doubt) [tri DM, tridecylmaltoside]
[1]
  potency as Cl- channel activator among alkylmaltosides tested: most potent
[1]; T84 cells
  cause of 125I- efflux stimulation: cell lysis: not due to lysis of the cells
  potency change on lengthening alkyl chain, DM as reference standard: markedly increases the potency
  potency in stimulating 125I- efflux relative to DM: more potent than DM
[1]; T84 cells, 10-100 μM
  stimulation of 125I- efflux, dose dependence: dose-dependent stimulation
[2]
  Cl- channel activity as measured by increased 125I- efflux: stimulate
[3]
  increase in 125I- efflux, dose dependence: dose-dependent increase
[4]
  stimulation of 125I- efflux, dose dependence: dose-dependent stimulation
[5]
  Cl- channel activity as measured by increased 125I- efflux: stimulate
[6]
  effective dosage: 10 to 400 µM

## CCCCCCCCCCCCO[C@@H]1O[C@H](CO)[C@@H](O)[C@H](O)[C@H]1O [DG, dodecylglucoside]
[1]; T84 cells
  activity as Cl- channel activator on altering saccharide moiety, compared to DM at 100 μM: markedly reduces the activity
[1]; T84 cells, 100 μM
  effect in stimulating 125I- efflux: minimal effect

## CCCCCCCCCCCCO[C@@H]1O[C@H](CO)[C@@H](O[C@H]2O[C@H](CO)[C@@H](O)[C@H](O)[C@H]2O)[C@H](O)[C@H]1O [DM, dodecylmaltoside]
[1]; T84 cells
  cause of 125I- efflux stimulation: cell lysis: not due to lysis of the cells
  reversibility of response upon removal of the agent: reversible
[1]; T84 cells, 100 μM or 200 μM DM
  rate of 125I- efflux during exposure, compared to control rate: increased rate
  rate of 125I- efflux with DM remaining during efflux phase after preincubation, compared to same concentration without preincubation: comparable
[1]; T84 cells, 100 μM or 200 μM DM, after 2 min exposure
  rate of 125I- efflux after removal of agent: reverts to the control rate
[1]; T84 cells, 10-400 μM
  stimulation of 125I- efflux, dose dependence: dose-dependent stimulation
[1]; T84 cells, 80-100 μM DM plus 20 μM forskolin
  rate of 125I- efflux on further exposure to forskolin in presence of DM: additional increase
[2]
  Cl- channel activity as measured by increased 125I- efflux: stimulate
[5]
  Cl- channel activity as measured by increased 125I- efflux: stimulate
[6]
  effective dosage: 10 to 400 µM
[7]
  MNTC: < 150 µM

## C[C@@H]1CC[C@@]2(OC1)O[C@H]1[C@@H](O)[C@H]3[C@@H]4CC[C@H]5C[C@@H](O[C@@H]6O[C@H](CO)[C@H](O[C@@H]7O[C@H](CO)[C@@H](O)[C@H](O[C@@H]8OC[C@@H](O)[C@H](O)[C@H]8O)[C@H]7O[C@@H]7O[C@H](CO)[C@H](O)[C@H](O[C@@H]8O[C@H](CO)[C@@H](O)[C@H](O)[C@H]8O)[C@H]7O)[C@H](O)[C@H]6O)[C@H](O)C[C@]5(C)[C@H]4CC[C@]3(C)[C@H]1[C@@H]2C [Digitonin, digitonin, reference compound]
[1]; T84 cells, 50 μM
  stimulation of 125I- efflux: pronounced effect

## C[S+](C)[O-] [Dimethylsulfoxide (DMSO), Dimethylsulfoxide, reference compound]
[1]; T84 cells, 17.6 mM
  effect in stimulating 125I- efflux: no effect

## O=C(O)c1cc([N+](=O)[O-])ccc1NCCCc1ccccc1 [NPPB, reference compound]
[1]; T84 cells, blocker of some Cl- channels
  125I- efflux inhibition: inhibits
[4]
  blocking of Cl- channels: blocked

## C=C[C@@]1(C)CC(=O)[C@]2(O)[C@@]3(C)[C@@H](O)CCC(C)(C)[C@@H]3[C@H](O)[C@H](OC(C)=O)[C@@]2(C)O1 [forskolin]
[1]; T84 cells, 20 μM forskolin
  stimulation of 125I- efflux: stimulation
[8]
  activation of CFTR: activate CFTR in T84 cells
[3]
  response in 125I- efflux assay: unresponsive
[9]
  activation of the Cl- channel: inability of the channel to be activated
[10]
  125I- efflux in response to agonist: not stimulated

## C[C@H](CCC(=O)O)C[C@H](C)C[C@H](C)C(=O)/C=C(\O)[C@H](C)C[C@H](C)C/C=C/[C@@H](C)[C@@H](O)[C@@H](C)[C@@H](O)C[C@@H]1CC[C@@](C)([C@H]2CC[C@@](C)([C@@H](C)O)O2)O1 [ionomycin, reference compound]
[1]; T84 cells, 1 μM ionomycin
  stimulation of 125I- efflux: stimulation
[3]
  response in 125I- efflux assay: responds briskly
[10]
  Opening of Ca++-regulated Cl- channels: opened

## CCCCCCCCO[C@@H]1O[C@H](CO)[C@@H](O)[C@H](O)[C@H]1O [octylglucoside]
[1]; T84 cells
  concentration at which an appreciable effect in stimulating 125I- efflux is shown: ≥ 500 µM
  potency relative to DM, tri DM and tetra DM: less potent than DM, tri DM and tetra DM
  stimulation of 125I- efflux: stimulate

## CCCCCCCCCCCCOS(=O)(=O)[O-].[Na+] [sodium dodecyl sulfate (SDS), sodium dodecyl sulfate]
[11]
  release upon cell lysis: precipitous release

## dodecylsucrose [DS]
[1]; T84 cells
  activity as Cl- channel activator on altering saccharide moiety, compared to DM at 100 μM: markedly reduces the activity
  potency relative to DM, tri DM and tetra DM: less potent than DM, tri DM and tetra DM
  stimulation of 125I- efflux: stimulate
[1]; T84 cells, 100 μM
  effect on 125I- efflux relative to DM at 100 μM: significantly smaller effect than DM
